Data reported in patent publication US4826994A, “Production of substituted 1,3,4,9-tetrahydropyrano(3,4-B)indole-1-acetic acids” (American Home Products Corporation, priority 1988, dated 1989).

How the values were obtained:
[1] = Preventative Adjuvant Edema (acute anti-inflammatory effect in rats); assay type: in vivo, Male Sprague Dawley rats; settings: for Preventative Adjuvant Edema, percent inhibition / inhibition in vivo at 25 mg/kg: 25 mg/kg, p.o.; for inhibition in vivo at 25 mg/kg: read-out: Preventative Adjuvant Edema, percent inhibition
Experimental: This test is a primary screen for anti-inflammatory drugs.
Male Sprague Dawley rats (180-200 g) are used. The animals have free access to water but food is withdrawn 18 hours before testing.
Drug Preparations and Administration:
Freund's complete adjuvant is prepared by suspending 5 mg of killed and dried Mycobacterium butyricum (Difco) in 1 mL mineral oil. The test compounds are dissolved, of suspended in 0.5% Tween 80 in distilled water according to their solubility. For primary screening all drugs are administered by gastric lavage at the arbitrary dosage of 25 mg/kg, p.o. in a volume of 0.5 mL/100 g body weight to groups of 10 animals.
The method is essentially that described by Wax et al, J. Pharmacol. Exp. Ther., 192, 166-171 (1975). Groups of rats are injected intradermally in the left hind paw with 0.1 mL of Freund's complete adjuvant. The test compound or vehicle is administered immediately before the adjuvant, 24 hours and 48 hours after the adjuvant (days 0, 1 and 2). The injected hind paw volume is measured before the injection of adjuvant and 24 hrs. after the last drug administration (day 3) by means of a plethysmometer (Buxco Electronics Inc.). The difference between the hind paw volume on day 0 and day 3 represents the edema volume. Etodolac (25 mg/kg, p.o.) is included as a positive control.
The mean edema volume (expressed as mL±SEM) is calculated for each group and the percentage protection conferred by the drug is calculated: [formula] where c is the mean edema volume for the vehicle-treated (0.5% Tween 80 in distilled water) controls and t is the mean edema volume for the drug treated group.

[2] = Drug Effects on Phenylbenzoquinone-induced Writhing in Mice; assay type: in vivo, Male Swiss albino mice; settings: for inhibition in vivo at 25 mg/kg / ED50: Mus musculus, po; for inhibition in vivo at 25 mg/kg: read-out: Phenylquinone Writhing in Mice, percent inhibition; for ED50: value in parentheses, read-out: Phenylquinone Writhing in Mice, ED50
Experimental: A further test used to determine the utility of the compounds of the present invention is designated: Drug Effects on Phenylbenzoquinone-induced Writhing in Mice
The objective of this test is to determine the ability of test drugs to inhibit the nociceptive (pain) response of mice injected with a chemical irritant. This test is a primary screen for both peripheral and centrally acting analgesic drugs.
Male Swiss albino mice (15-25 g). The animals are fasted for 18 hours prior to use but have free access to water.
(§1) Drug Preparation and Administration:
Drugs are dissolved or suspended according to their solubility in 0.5% Tween 80 in distilled water. They are administered by gastric gavage in a volume of 5 mL/kg. For primary screening all drugs are administered at the arbitrary dosage of 25 mg/kg, p.o. to a group of 10 mice.
A modification of the method of Siegmund et al, Proc. Soc. Exp. Biol. Med., 95, 729-731 (1957) is used. Groups of 5 mice are dosed with the test compound or vehicle control. Sixty minutes later the animals are injected i.p. with 0.3 mL/20 g body weight of a 0.02% solution of phenylbenzoquinone (PBQ; 2-phenyl-1,4-benzoquinone) and placed in individual observation boxes. The number of writhing or abdominal squirming movements made by each mouse during the following 15 min. period is counted. The experiment is repeated with another group of 5 mice and the mean number of writhes per mouse for a group of 10 mice is calculated.
Drug treated and vehicle-treated control groups are compared and the percentage protection conferred by the drug is calculated: [formula] where c=mean number of writhes in the control group where t=mean number of writhes in the test drug group

[3] = Randall Selitto Test in the Rat (pain threshold in inflamed paw); assay type: in vivo, Male Sprague Dawley rats; settings: Rattus norvegicus, po, rats, 1 hour after dosing; value in parentheses; read-out: Randall Selitto Test in the Rat, ED50 (dose which causes analgesia in 50% of the animals)
Excerpt: An additional test used to determine the utility of the compounds of the present invention is designated: Randall Selitto Test in the Rat
The objective of this test is to assess the potency of peripheral and central acting drugs in inhibiting the reaction of rats to painful stimulation applied to an inflamed paw.
Male Sprague Dawley rats (180-200 g) are used. The animals are fasted overnight prior to drug administration.
as §1
Freund's Complete Adjuvant (FCA) is prepared by suspending 5 mg killed and dried mycobacterium butyricum (Difco) in 1 mL mineral oil. The test compounds are dissolved or suspended in 0.5% Tween 80 in distilled water according to their solubility. They are administered by gastric gavage in a volume of 0.5 mL/100 g body weight to groups of 10 animals.
Ten rats are used per group. The method is essentially that described by Randall and Selitto, Arch. Int. Pharmacodyn. 111, 409 (1957) and the apparatus which is used to apply pressure to the paw (Analgesi-meter for the rat paw, Ugo Basile, Comeria, Italy) is a modification of that described by Gilfoil et al, J. Pharmacol. 142, 1 (1963). The instrument is basically a device which exerts a force that increases at a constant rate. The force is continuously monitored by a pointer moving along a linear scale and is measured in grams. The inflammatory reaction is induced in the left hind paw of rats of injecting 0.1 mL of Freund's adjuvant intradermally. The test compound or vehicle is administered 24 hours after the adjuvant. The pain threshold (vocalization) is determined 1 hour later in the inflamed paw of the treated and control groups.
Presentation of Results and Criteria for Activity:
Each animal which has a reading 1.5 times greater than the mean reading of the control-group will be considered as responsive (having an analgesic effect) to treatment. The number of animals showing an analgesic effect is then determined in each group.
The ED50 (dose which causes analgesia in 50% of the animals) using at least 3 doses is then determined, by the method described in Litchfield and Wilcoxon, J. Pharmacol. Exp. Ther., 96, 99-113 (1949).

| SMILES | inhibition in vivo at 25 mg/kg ([2]; 25 mg/kg, p.o.) [%] | inhibition in vivo at 25 mg/kg ([1]; Rattus norvegicus, po, 72 h) [%] | other results |
| --- | --- | --- | --- |
| CCc1cccc2c3c([nH]c12)C(CC)(CC(=O)O)OCC3Cc1ccccc1 (single isomer, unassigned) [Example 4, 1,8-Diethyl-1,3,4,9-tetrahydro-4-(phenylmethyl)-pyrano[3,4-b]indole-1-acetic Acid] | 86 |  | Preventative Adjuvant Edema, percent inhibition [1]: 15%; ED50 [3]: 0.5 mg/kg |
| C=CCC1COC(CC)(CC(=O)O)c2[nH]c3c(CC)cccc3c21 (single isomer, unassigned) [Example 11, 1,8-diethyl-1,3,4,9-tetrahydro-4-(2-propenyl)-pyrano[3,4-b]indole-1-acetic acid] | 11 | 55 |  |
| C=CCC1COC(CC)(CC(=O)O)c2[nH]c3c(CCC)cccc3c21 (single isomer, unassigned) [Example 13, 1-ethyl-1,3,4,9-tetrahydro-4-(2-propenyl)-8-propyl-pyrano[3,4-b]indole-1-acetic acid] | 2 | 36 |  |
| C=CCC1COC(CC)(CC(=O)O)c2[nH]c3ccccc3c21 (single isomer, unassigned) [Example 14] | 21 | 46 |  |
| C=CCC1COC(CC)(CC(=O)O)c2[nH]c3ccccc3c21 (single isomer, unassigned) [Example 15] |  |  | Preventative Adjuvant Edema, percent inhibition [1]: 30%; Phenylquinone Writhing in Mice, percent inhibition ([2]; 25 mg/kg, p.o.): 25% |
| C=CCC1COC(CC)(CC(=O)O)c2[nH]c3c(C)c(Cl)ccc3c21 (single isomer, unassigned) [Example 17, 7-chloro-1-ethyl-1,3,4,9-tetrahydro-8-methyl-4-(2-propenyl)-pyrano[3,4-b]indole-1-acetic acid] | 11 | 44 |  |
| CCC1(CC(=O)O)OCC(Cc2ccccc2)c2c1[nH]c1c(C)c(Cl)ccc21 (single isomer, unassigned) [Example 20, 7-chloro-1-ethyl-1,3,4,9-tetrahydro-8-methyl-4-(phenylmethyl)-pyrano[3,4-b]indole-1-acetic acid] | 11 |  | Preventative Adjuvant Edema, percent inhibition [1]: 34% |
| CCC1(CC(=O)O)OCC(Cc2ccccc2)c2c1[nH]c1c(C)cccc21 (single isomer, unassigned) [Example 21, 1-ethyl-1,3,4,9-tetrahydro-8-methyl-4-(phenylmethyl)-pyrano[3,4-b]indole-1-acetic acid] | 11 | 40 |  |
| CCC1(CC(=O)O)OCC(Cc2ccccc2)c2c1[nH]c1c(Cl)ccc(C)c21 (single isomer, unassigned) [Example 23, 8-chloro-1-ethyl-1,3,4,9-tetrahydro-5-methyl-4-(phenylmethyl)-pyrano[3,4-b]indole-1-acetic acid] |  |  | Preventative Adjuvant Edema, percent inhibition [1]: 0%; ED50 [2]: 1.4 mg/kg |
| CCC1(CC(=O)O)OCC(Cc2ccccc2)c2c1[nH]c1c(Cl)ccc(C)c21 (single isomer, unassigned) [Example 24, 8-chloro-1-ethyl-1,3,4,9-tetrahydro-5-methyl-4-(phenylmethyl)-pyrano[3,4-b]indole-1-acetic acid] | 0 |  | Preventative Adjuvant Edema, percent inhibition [1]: 2% |
| CCC1(CC(=O)O)OCC(Cc2ccccc2)c2c1[nH]c1ccc(Br)cc21 (single isomer, unassigned) [Example 25, 6-bromo-1-ethyl-1,3,4,9-tetrahydro-4-(phenylmethyl)-pyrano[3,4-b]indole-1-acetic acid] |  |  | ED50 [2]: 3.1 mg/kg |
| CCC1(CC(=O)O)OCC(Cc2ccccc2)c2c1[nH]c1ccc(Br)cc21 (single isomer, unassigned) [Example 26, 6-bromo-1-ethyl-1,3,4,9-tetrahydro-4-(phenylmethyl)-pyrano[3,4-b]indole-1-acetic acid] | 10 |  |  |
| C=CCC1COC(CC)(CC(=O)O)c2[nH]c3ccc(F)cc3c21 (single isomer, unassigned) [Example 27] | 24 |  |  |
| CCC1(CC(=O)O)OCC(Cc2ccccc2)c2c1[nH]c1c(C)ccc(Cl)c21 (single isomer, unassigned) [Example 29, 5-chloro-1-ethyl-1,3,4,9-tetrahydro-8-methyl-4-(phenylmethyl)-pyrano[3,4-b]indole-1-acetic acid] |  |  | ED50 [2]: 3.2 mg/kg |
| CCC1(CC(=O)O)OCC(Cc2ccccc2)c2c1[nH]c1cc(Cl)ccc21 (single isomer, unassigned) [Example 34, 7-chloro-1-ethyl-1,3,4,9-tetrahydro-4-(phenylmethyl)-pyrano[3,4-b]indole-1-acetic acid] |  |  | ED50 [2]: 1.4 mg/kg |
| CCC1(CC(=O)O)OCC(Cc2ccc(Cl)cc2)c2c1[nH]c1ccccc21 (single isomer, unassigned) [Example 40] | 47 | 60 |  |
| CCC1(CC(=O)O)OCC(Cc2ccc(OC)cc2)c2c1[nH]c1ccccc21 (single isomer, unassigned) [Example 41] | 30 |  |  |
| C=CCC1COC(CC)(CC(=O)O)c2[nH]c3c(C)c(F)ccc3c21 (single isomer, unassigned; isomer a) [Example 6, 1-Ethyl-7-fluoro-1,3,4,9-tetrahydro-8-methyl-4-(2-propenyl)pyrano[3,4-b]indole-1-acetic Acid (Isomer A)] |  |  | ED50 ([1]; Rattus norvegicus, po, 72 h, value in parentheses): 3.2 mg/kg; ED50 [2]: 18 mg/kg |
| CCC1(CC(=O)O)OCC(Cc2ccccc2)c2c1[nH]c1ccccc21 (single isomer, unassigned; isomer b) [Example 3, 1-Ethyl-1,3,4,9-tetrahydro-4-(phenylmethyl)-pyrano[3,4-b]indole-1-acetic Acid (Isomer B)] | 19 |  |  |
| CCc1cccc2c3c([nH]c12)C(CC)(CC(=O)O)OCC3Cc1ccccc1 (single isomer, unassigned; isomer b) [Example 5, 1,8-Diethyl-1,3,4,9-tetrahydro-4-(phenylmethyl-pyrano[3,4-b]indole-1-aceticAcid (Isomer B)] |  |  | Preventative Adjuvant Edema, percent inhibition [1]: 4% |
| C=CCC1COC(CC)(CC(=O)O)c2[nH]c3c(C)c(F)ccc3c21 (single isomer, unassigned; isomer b) [Example 7, 1-Ethyl-7-fluoro-1,3,4,9-tetrahydro-8-methyl-4-(2-propenyl)pyrano[3,4-b]indole-1-acetic Acid (Isomer B)] | 15 | 37 |  |
